According to patent US6677336B2, “Substituted piperazine compounds” (CV Therapeutics, Inc., priority 2000, dated 2004):

Test system: mitochondrial fatty acid oxidation (rat heart mitochondria)
Test: Palmitoyl CoA oxidation in isolated rat heart mitochondria
Assay type: biochemical
Settings: 100 μM compound; 15 min at 30° C; DMSO control
Description: Compounds of this invention were evaluated in a rat heart mitochondiral assay as set forth below.
Rat heart mitochondria were isolated by the method of Nedergard and Cannon (methods in Enzymol. 55, 3, 1979).
Palmitoyl CoA oxidation—The Palmityl CoA oxidation was carried out in a total volume of 100 micro liters containing the following agents: 110 mM KCl, 33 mM Tris buffer at pH 8, 2 mM KPi, 2 mM MgCl2, 0.1 mM EDTA, 14.7 microM defatted BSA, 0.5 mM malic acid, 13 mM carnitine, 1 mM ADP, 52 micrograms of mitochondrial protein, and 16 microM 1-C14 palmitoyl CoA (Sp. Activity 60 mCi/mmole; 20 microCi/ml, using 5 microliters per assay). The compounds of this invention were added in a DMSO solution at the following concentrations: 100 microM, 30 microM, and 3 microM. In each assay, a DMSO control was used. After 15 min at 30° C., the enzymatic reaction was centrifuged (20,000 g for 1 min), and 70 microliters of the supernatant was added to an activated reverse phase silicic acid column (approximately 0.5 ml of silicic acid). The column was eluted with 2 ml of water, and 0.5 ml of the eluent was used for scintillation counting to determine the amount of C^14 trapped as C^14 bicarbonate ion.

Compound | Inhibition of mitochondrial fatty acid oxidation using palmitoyl CoA as substrate - % of Control
Cc1cccc(C)c1NC(=O)CN1CCN(CC(O)CCOc2ccc(F)cc2)CC1 (stereo not drawn) [Compound 21, N-(2,6-dimethylphenyl)-2-{4-[4-(4-fluorophenoxy)-2-hydroxybutyl]-piperazinyl}acetamide] | 87%
Cc1cccc(C)c1NC(=O)CN1CCN(C[C@H](O)COc2ccccc2F)[C@@H](C)C1 [Compound 25, 2-{(3S)-4-[(2S)-3-(2-fluorophenoxy)-2-hydroxypropyl]-3-methylpiperazinyl}-N-(2,6-dimethylphenyl)acetamide] | 77%
C[C@H]1CN(CC(=O)Nc2c(Cl)cccc2Cl)CCN1C[C@H](O)COc1ccccc1F [Compound 26, 2-{(3S)-4-[(2S)-3-(2-fluorophenoxy)-2-hydroxypropyl]-3-methylpiperazinyl}-N-(2,6-dichlorophenyl)acetamide] | 0%
COc1cc(NC(=O)CN2CCN(C[C@H](O)COc3ccccc3F)[C@@H](C)C2)cc(C(F)(F)F)c1 [Compound 28, 2-{(3S)-4-[(2S)-3-(2-fluorophenoxy)-2-hydroxypropyl]-3-methylpiperazinyl}-N-(5-methoxy-3-(trifluoromethyl)phenyl]acetamide] | 59%
C[C@H]1CN(CC(=O)Nc2ccc3c(c2)CCC3)CCN1C[C@H](O)COc1ccccc1F [Compound 29, 2-{(3S)-4-[(2S)-3-(2-fluorophenoxy)-2-hydroxypropyl]-3-methylpiperazinyl}-N-indan-5-ylacetamide] | 51%
C[C@H]1CN(CC(=O)Nc2cccc3ccccc23)CCN1C[C@H](O)COc1ccccc1F [Compound 30, 2-{(3S)-4-[(2S)-3-(2-fluorophenoxy)-2-hydroxypropyl]-3-methylpiperazinyl}-N-naphthylacetamide] | 16%
C[C@H]1CN(CC(=O)Nc2ccc(Cl)c3ccccc23)CCN1C[C@H](O)COc1ccccc1F [Compound 31, 2-{(3S)-4-[(2S)-3-(2-fluorophenoxy)-2-hydroxypropyl]-3-methylpiperazinyl}-N-(4-chloronaphthyl)acetamide] | 87%
C[C@H]1CN(CC(=O)Nc2ccccc2-n2cccc2)CCN1C[C@H](O)COc1ccccc1F [Compound 32, 2-{(3S)-4-[(2S)-3-(2-fluorophenoxy)-2-hydroxypropyl]-3-methylpiperazinyl}-N-(2-pyrrolylphenyl)acetamide] | 74%
C[C@H]1CN(CC(=O)Nc2ccccc2)CCN1C[C@H](O)COc1ccccc1F [Compound 33, 2-{(3S)-4-[(2S)-3-(2-fluorophenoxy)-2-hydroxypropyl]-3-methylpiperazinyl}-N-phenylacetamide] | 63%
C[C@H]1CN(CC(=O)Nc2ccccc2Cl)CCN1C[C@H](O)COc1ccccc1F [Compound 34, 2-{(3S)-4-[(2S)-3-(2-fluorophenoxy)-2-hydroxypropyl]-3-methylpiperazinyl}-N-(2-chlorophenyl)acetamide] | 48%
Cc1ccc(NC(=O)CN2CCN(C[C@H](O)COc3ccccc3F)[C@@H](C)C2)c(Cl)c1 [Compound 35, 2-{(3S)-4-[(2S)-3-(2-fluorophenoxy)-2-hydroxypropyl]-3-methylpiperazinyl}-N-(2-chloro-4-methylphenyl)acetamide] | 45%
C=C(C)c1ccccc1NC(=O)CN1CCN(C[C@H](O)COc2ccccc2F)[C@@H](C)C1 [Compound 36, 2-{(3S)-4-[(2S)-3-(2-fluorophenoxy)-2-hydroxypropyl]-3-methylpiperazinyl}-N-[2-(1-methylvinyl)phenyl]acetamide] | 61%
